Experimental data: US12082584B2, “BOC-butenolide, an antifouling compound that has potent ability to inhibit the settlement of marine invertebrate larvae” (The Hong Kong University of Science and Technology, priority 2021, dated 2024)

Tests used:
Balanus amphitrite = assay: Anti-larval settlement bioassay of barnacle cyprids (settlement and toxic effects); type: in vivo; conditions: for settlement rate: cyprids
Procedure: Adult A. amphitrite colonies were collected from Tso Wo Hang Pier (22°23′32.1″N 114°17′18.7″E), Hong Kong, from April to June 2018. The adults were kept in a water tank with running seawater at the Coastal Marine Laboratory (the Hong Kong University of Science and Technology) for no more than a week before experimental use. Adults were induced under light sources for 1 h to hatch and the larvae were obtained using the method described previously by Harder et al. (2001), which is hereby incorporated by reference in its entirety. The nauplii larvae newly released from the adults were reared on diatom Chaetoceros gracilis Schütt. The seawater culture medium was replaced with fresh FSW and algae every day, and the nauplii reached the competent stage, known as cyprid, after 4 d of incubation at around 28° C.
The test compounds were dissolved with a small amount of DMSO. The test compounds were used in six concentrations from 100 ppm to 3.125 ppm with 2-fold serial dilution. The same amount of DMSO was used as the negative control for all testing concentrations. Approximately 20±2 individual A. amphitrite cyprids were placed into each well of the 24-well polystyrene culture plate containing 2 mL of FSW and were subjected to different treatments. For all treatments and controls, three replicates were performed. The plates were then incubated at 25° C. in darkness. After 48 h, the number of settled and swimming larvae were counted using Leica MZ6 microscope, and possible toxic effects were also noted.

Hydroides elegans = assay: Anti-larval settlement bioassay of H. elegans larvae (settlement and toxic effects); type: in vivo
Procedure: Adult H. elegans colonies were collected from a fish farm at Yung Shue O, Hong Kong (22°24′N, 114°21′E) from March to April 2019. The adults were kept in a water tank with running seawater at the Coastal Marine Laboratory (the Hong Kong University of Science and Technology) for no more than 3 days before experimental use. The larvae were collected according to the methods described by Qian and Pechenik (1998). The tube of the adults was gently cracked with forceps to release the gametes. Oocytes were then mixed with the sperm and transferred to a new container with 500 mL FSW for fertilization. Larvae were reared on microalga Isochrysis galbana (Tahitian strain) after hatching. The seawater culture medium was replaced with fresh FSW and algae every day, and the trochophore-stage larvae reached the competent stage after 5 d of incubation at around 25° C.
The test compounds were dissolved with a small amount of DMSO. The test compounds were used at six different concentrations with a 2-fold serial dilution from 100 ppm to 3.125 ppm. The same amount of DMSO was used as the negative control for all testing concentrations. Approximately 10±2 individuals of H. elegans larvae were put into each well of a 24-well polystyrene culture plate that contained 2 mL of FSW with different concentrations of test solution. Approximately 10^−4 molarity of 3-isobutyl-1-methylxanthine was added into each well as an inducer to induce the settlement of H. elegans larvae (Xu et al., 2010). The plates were then incubated at 25° C. in darkness. After 24 h, the number of settled and swimming larvae were counted using Leica MZ6 microscope, and possible toxic effects were also noted.

[1] = Antifoulant release rate from PCL-PU coatings in artificial seawater (HPLC); type: physicochemical
Procedure: (§1) The polymer/antifoulant coatings in subject invention were prepared using the solution casting method described by Ding et al. 2018. The coating was prepared by dissolving poly(ε-caprolactone) based polyurethane (PCL-PU) and BOC-butenolide, in different proportions (i.e. 95 wt % polymer and 5 wt % antifoulant for 5% antifoulant coating), in xylene with vigorous stirring until all solids have dissolved to form a uniform solution. The solution was applied onto the surface of the panels, either epoxy panel (25 mm×75 mm) for release rate determination or PVC panels (53 mm×125 mm) for field test, and the panels were then placed under room temperature for all solvent to evaporate and form a continuous coating.
The release rate of BOC-butenolide was determined by HPLC for quantification. The polymer/antifoulant coatings were prepared on an epoxy panel (25 mm×75 mm). The coated panels were then put into ASW. At certain time points (day 1, 8, 15, 22, 29, 50, 71, 92 after immersion onto ASW), the panels were transferred to individual containers with 100 mL of fresh ASW. […]

fouling organisms = assay: Field test of coated PVC panels immersed in seawater; type: in vivo; conditions: PCL-PU coating
Procedure: as §1
The field tests were conducted at a fish farm in Yung Shue O, Hong Kong (114°21′E, 22°24′N) from January to March 2018. PVC panels (53 mm×125 mm) covered with coatings were immersed in seawater at a depth of 1 m from surface. The panels were retrieved once every month to be washed gently with seawater to remove dirt and photographed before being placed back in the sea. The antifouling potential of different panels was compared to determine the efficiency of the coatings. […] The percentage of area covered by foulers was calculated from the ratio of total fouling area to the panel area in which the area was highlighted by threshold function in ImageJ. […]

[2] = Stability of BOC-butenolide; type: physicochemical; conditions: compared to butenolide
Procedure: The stability of BOC-butenolide was measured by the concentration changes of BOC-butenolide in ASW throughout 3 months. The starting nominal concentration of BOC-butenolide was 200 ppm. At every time point, 5 mL of the solution was drawn and mixed with 10 mL dichloromethane (DCM). The DCM fraction with the analyte was dried under nitrogen gas, redissolved reconcentrated in 1 mL of methanol and subjected to above HPLC analysis.

initial release rate ([1]; 10 wt % samples in PCL-PU coating): 150 μg cm^−2 day^−1
time the coating can still release BOC-butenolide ([1]; PCL-PU coating): at least 2 months
stability [2]: increased
Structure (SMILES): CC(C)(C)OC(=O)NCCCCCC1C=CC(=O)O1 (stereo not shown) [BOC-butenolide, Tert-butyl (5-(5-oxo-2,5-dihydrofuran-2yl)pentyl)carbamate]
settlement rate (Balanus amphitrite; 3.125 ppm, 48 h): around 70%
toxicity (larval death rate) (Balanus amphitrite; 25 ppm and below): did not show any toxicity
settlement rate (Balanus amphitrite; 25 ppm, 48 h): around 3%
attachment of barnacle cyprids (Balanus amphitrite; 50 to 100 ppm, 48 h): inhibits the attachment
settlement rate (Hydroides elegans; 3.125 ppm, 24 h): up to 80%
toxicity (larval death rate) (Hydroides elegans; 25 ppm and below): did not show any toxicity
settlement rate (Hydroides elegans; 25 ppm, 24 h, significant difference with control): around 20%
larval settlement (Hydroides elegans; 50 and 100 ppm, 24 h): no larval settlement
death (Hydroides elegans; 50 ppm): around 10%
AF ability to resist the attachment of the fouling organisms (fouling organisms): relatively good AF ability
